According to US7381537B2, “Use of inhibitors of glutaminyl cyclases for treatment and prevention of disease” (Probiodrug AG, priority 2003, dated 2008):
“Also recorded” adds a separate entry of the source. One block for each compound: values may come before it. Ends that are not written are not given here.

Tests used:
[1] = test system: DP IV and QC; assay: Consecutive catalysis of DP IV and QC, crude porcine pituitary homogenate with added DPIV, MALDI-TOF; format: biochemical
Method: (§1) Matrix-assisted laser desorption/ionization mass spectrometry was carried out using the Hewlett-Packard G2025 LD-TOF System with a linear time of flight analyzer. […] Samples (5 μl) were mixed with equal volumes of the matrix solution. For matrix solution we used DHAP/DAHC, prepared by solving 30 mg 2′,6′-dihydroxyacetophenone (Aldrich) and 44 mg diammonium hydrogen citrate (Fluka) in 1 ml acetonitrile/0.1% TFA in water (1/1, v/v). A small volume (=1 μl) of the matrix-analyte-mixture was transferred to a probe tip and immediately evaporated in a vacuum chamber (Hewlett-Packard G2024A sample prep accessory) to ensure rapid and homogeneous sample crystallization.

[2] = test system: Glutaminyl cyclase present in the homogenate of porcine pituitary; assay: Formation of [pGlu^3]Aβ3-11a by QC in porcine pituitary homogenate, MALDI-TOF; format: biochemical; settings: 2 mM 1,10-phenanthroline
Method: as §1
In case of Aβ3-21a, the assays contained 1% DMSO. At different times, samples were removed from the assay tube, peptides extracted using ZipTips (Millipore) according to the manufacturer's recommendations, mixed with matrix solution (1:1 v/v) and subsequently the mass spectra recorded.

[3] = test system: mammalian QC; settings: Busby et al. 1987; cited from earlier work
[4] = biological target: T1, QC (Homo sapiens, UniProt Q16769); assay: Inhibition and inactivation of human QC by chelators; format: biochemical; set-up: The cDNA of the mature QC starting with codon 38 was fused in frame with the plasmid encoded 6×histidine tag; 6xHis; made in house; host or cells: Pichia pastoris X33 (pPICZαB); also E. coli M15 (pQE-31)
[5] = Solubility of substrates in aqueous solution
[6] = biological target: T1, QC; assay: Reactivation of inactivated human QC with metal ions; format: biochemical; set-up: The cDNA of the mature QC starting with codon 38 was fused in frame with the plasmid encoded 6×histidine tag; 6xHis; made in house; host or cells: Pichia pastoris X33 (pPICZαB); also E. coli M15 (pQE-31); settings: 0.5 mM metal ion in presence of 0.5 mM EDTA
Method: Subsequently, the enzyme was subjected to dialysis against 50 mM Bis-Tris, pH 6.8, containing 1.0 mM EDTA. Reactivation of the enzymes was achieved by incubation of the inactivated enzyme sample with metal ions at a concentration of 0.5 mM, in presence of 0.5 mM EDTA in order to avoid an unspecific reactivation by traces of metal ions present in buffer solutions. Controls are given by enzyme samples that were not inactivated, but also dialyzed against EDTA solution as the inactivated enzyme (+EDTA) and enzyme samples that were dialyzed against buffer solutions without added EDTA (−EDTA).

T1 sequence (Q16769 29-361): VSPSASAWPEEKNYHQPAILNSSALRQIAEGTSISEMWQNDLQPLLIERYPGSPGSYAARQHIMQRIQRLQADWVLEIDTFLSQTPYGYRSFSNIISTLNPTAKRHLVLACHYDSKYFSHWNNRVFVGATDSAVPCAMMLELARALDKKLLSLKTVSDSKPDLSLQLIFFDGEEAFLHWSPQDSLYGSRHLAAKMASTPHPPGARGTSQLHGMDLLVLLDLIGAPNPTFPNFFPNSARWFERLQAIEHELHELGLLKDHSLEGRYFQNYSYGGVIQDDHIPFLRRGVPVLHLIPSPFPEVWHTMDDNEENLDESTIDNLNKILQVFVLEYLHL

- inhibition of formation of [pGlu^3]Aβ3-11a from [Gln^3]Aβ3-11a [2]: inhibited; also recorded: inhibition
- inactivation of human QC after extensive dialysis ([4]; dialysis against 5 mM): almost completely inactivated
Compound: c1cnc2c(c1)ccc1cccnc12 [1,10-phenanthroline]
- [pGlu^3]Aβ3-11a formation from [Gln^3]Aβ1-11a in presence of catalytically active DP IV and QC [1]: not formed; also recorded: inhibition
- inhibition of a mammalian QC [3]: Inhibition
- inhibition of human QC catalyzed substrate cyclization ([4]; competitive and time-dependent for the chelators): inhibited; also recorded: reduced enzymatic activity

- solubility in aqueous solution [5]: better
Compound: QFRHDSGYE-NH2 [[Gln^3]Aβ3-11a]

- restoration of QC activity after inactivation [6]: Near-total restoration
Compound: O=S(=O)([O-])[O-].[Zn+2] [ZnSO4]
